Measurements from ChEMBL document CHEMBL3271943, “P-Aminobenzoic acid derivatives. Mode of action and structure-activity relationships in a cell-free system (Escherichia coli)” (J Med Chem, 1977).
The source made the active and inactive calls. No cut-off for these calls is given here.

Assays:
[1] = octanol/water
Description: Lipophilic-hydrophilic balance, Rm of the compound by TLC analysis

physchem [2] = assay: physchem
Description: Dissociation constant, pKa of the compound by spectrophotometric analysis

Escherichia coli [3] = assay: microbe, parasite or virus in culture; conditions: 24 h, read-out: ID50
Description: Antimicrobial activity against Escherichia coli assessed as growth inhibition after 24 hrs by turbidimetric analysis

[4] = buffer
Description: Solubility of the compound in water

Albumin = Albumin (Homo sapiens, UniProt P02768); assay: Binding affinity to human serum albumin at 100 umol/l by equilibrium dialysis technique; format: ADME; conditions: isolated protein, 100 µM
Escherichia coli [5] = assay: Inhibition of Escherichia coli dihydropteroic acid synthesizing system-mediated folate production at 50 to 250 umol/l
physchem [6] = conditions: aqueous solution
Description: Hydrolytic dissociation constant, pKa of the compound in aqueous solution at 50 degC

Escherichia coli [7] = assay: Reversal of sulfabenzene-mediated growth inhibition of Escherichia coli at 4 to 400 umol/l; format: functional, organism-based
Escherichia coli [8] = assay: Reversal of sulfapyridine-mediated growth inhibition of Escherichia coli at 4 to 400 umol/l; format: functional, organism-based
Enterococcus faecalis [9] = assay: Induction of Streptococcus faecalis growth; format: functional, organism-based
Enterococcus faecalis [10] = assay: Growth inhibition of Streptococcus faecalis; format: functional, organism-based

Chain of Albumin (P02768 whole entry): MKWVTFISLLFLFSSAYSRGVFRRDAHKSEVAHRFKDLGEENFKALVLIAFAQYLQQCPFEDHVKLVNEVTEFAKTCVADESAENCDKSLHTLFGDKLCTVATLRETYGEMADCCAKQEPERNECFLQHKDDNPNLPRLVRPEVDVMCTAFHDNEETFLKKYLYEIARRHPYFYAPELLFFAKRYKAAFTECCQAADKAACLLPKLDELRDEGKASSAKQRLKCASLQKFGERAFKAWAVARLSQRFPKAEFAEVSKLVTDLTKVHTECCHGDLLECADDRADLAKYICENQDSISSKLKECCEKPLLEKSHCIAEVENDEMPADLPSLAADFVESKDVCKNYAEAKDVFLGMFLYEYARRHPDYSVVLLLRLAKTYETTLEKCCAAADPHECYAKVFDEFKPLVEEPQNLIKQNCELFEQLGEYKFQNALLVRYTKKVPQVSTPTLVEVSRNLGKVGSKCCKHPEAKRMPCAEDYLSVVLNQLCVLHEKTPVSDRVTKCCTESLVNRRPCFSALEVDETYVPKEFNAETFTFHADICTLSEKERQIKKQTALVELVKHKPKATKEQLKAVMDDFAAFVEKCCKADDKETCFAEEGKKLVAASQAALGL

Row | SMILES | Rm [1] | pKa (physchem [2]) | IC50 (Escherichia coli [3]) [µM] | log(PB) (Albumin) | other results
1 | N#CSc1cc(C(=O)O)ccc1N |  | 4.52 | 190 | 1.68 | 
2 | Nc1ccc(C(=O)O)cc1C(=O)c1ccccc1 |  | 4.34 | 105 |  | solubility [4]: soluble
3 | Nc1nc2c(c(=O)[nH]1)N=C(CNc1ccc(C(=O)O)cc1)CN2 |  |  |  |  | Activity (Escherichia coli [7]): Active; Activity (Escherichia coli [8]): Active
4 | Nc1ccc(C(=O)O)cc1[N+](=O)[O-] | 3.11 | 3.96 | 130 | 1.89 | solubility [4]: soluble
5 | Nc1nc(O)c2c(n1)NCC(CNc1ccc(C(=O)O)cc1F)=N2 |  |  |  |  | Activity (Escherichia coli [7]): Active; Activity (Escherichia coli [8]): Active
6 | Nc1nc(=O)c2nc(CNc3ccc(C(=O)O)c(F)c3)cnc2[nH]1 |  |  |  |  | Activity (Enterococcus faecalis [9]): Active
7 | Nc1ccc(C(=O)O)cc1I | 2.95 | 4.34 | 110 | 1.92 | 
8 | Nc1ccc(C(=O)O)cc1Br | 2.85 | 4.24 | 110 | 1.89 | pKa (physchem [6]): 4.31
9 | Nc1ccc(C(=O)O)cc1O |  | 4.59 | 85 | 1.27 | 
10 | Nc1ccc(C(=O)O)cc1F | 1.66 | 4.35 | 13 | 1.52 | inhibition (Escherichia coli [5]): Active
11 | Nc1nc(O)c2c(n1)NCC(CNc1ccc(C(=O)O)c(Cl)c1)=N2 |  |  |  |  | Activity (Escherichia coli [7]): Active; Activity (Escherichia coli [8]): Active
12 | Nc1ccc(C(=O)O)cc1C(=O)O |  |  | 120 | 1.82 | 
13 | Nc1ccc(C(=O)O)c([N+](=O)[O-])c1 | 2.3 | 2.78 | 100 | 1.33 | pKa (physchem [6]): 3.22
14 | Nc1ccc(C(=O)O)cc1Cl | 2.38 | 4.35 | 100 | 1.81 | 
15 | Nc1ccc(C(=O)O)cc1 [AMINOBENZOIC ACID] | 1.21 |  |  |  | pKa (physchem [6]): 4.67
16 | Nc1nc(=O)c2nc(CNc3ccc(C(=O)N[C@@H](CCC(=O)O)C(=O)O)cc3)cnc2[nH]1 |  |  |  |  | Activity (Enterococcus faecalis [9]): Active
17 | Nc1nc(=O)c2nc(CNc3ccc(C(=O)O)c(Cl)c3)cnc2[nH]1 |  |  |  |  | Activity (Enterococcus faecalis [9]): inactive; growth inhibition (GI) (Enterococcus faecalis [10]): inactive
18 | Nc1nc(O)c2nc(CNc3ccc(C(=O)O)cc3)cnc2n1 |  |  |  |  | Activity (Enterococcus faecalis [9]): Active
19 | Nc1ccc(C(=O)O)c(C(=O)O)c1 |  |  | 120 | 0.45 | 
20 | Cc1cc(C(=O)O)ccc1N | 1.6 | 4.62 | 120 | 1.37 | 
21 | Cl.Nc1ccc(C(=O)O)cc1N |  | 4.84 | 40 | 0.95 | 

The next lines start with results.

Row | Rm [1] | pKa (physchem [2]) | IC50 (Escherichia coli [3]) [µM] | log(PB) (Albumin) | SMILES | other results
22 | 2.7 | 5.17 | 125 |  | CC(C)CCOc1cc(N)ccc1C(=O)O | solubility [4]: soluble
23 | 4.25 | 5.4 | 25 |  | CCCCCCCCOc1cc(N)ccc1C(=O)O | solubility [4]: soluble
24 | 1.75 | 4.96 | 140 | 1.69 | CCCOc1cc(N)ccc1C(=O)O | solubility [4]: soluble
25 | 2.17 | 3.88 | 45 | 1.36 | Nc1ccc(C(=O)O)c(Cl)c1 | inhibition (Escherichia coli [5]): inactive; pKa (physchem [6]): 3.93
26 | 2.38 | 3.69 | 8 | 1.67 | Cl.Nc1ccc(C(=O)O)c(Br)c1 | pKa (physchem [6]): 3.85
27 | 1.68 | 5.01 | 125 | 1.63 | C=CCOc1cc(N)ccc1C(=O)O | solubility [4]: soluble
28 | 3.77 | 5.3 | 90 |  | CCCCCCCOc1cc(N)ccc1C(=O)O | solubility [4]: soluble
29 | 1.62 | 4.13 | 125 | 1.27 | Nc1ccc(C(=O)O)c(F)c1 | 
30 | 1.73 | 4.83 | 30 | 1.16 | Cc1cc(N)ccc1C(=O)O | 
31 | 2.85 | 5.1 | 135 | 1.76 | CCCCCOc1cc(N)ccc1C(=O)O | solubility [4]: soluble
32 |  | 5.04 | 100 | 1.26 | COc1cc(N)ccc1C(=O)O | pKa (physchem [6]): 5.1
33 | 1.31 | 5.09 | 130 | 1.56 | CCOc1cc(N)ccc1C(=O)O | solubility [4]: soluble
34 | 1.92 | 3.52 | 25 | 1.57 | Nc1ccc(C(=O)O)c(O)c1 [AMINOSALICYLIC ACID] | inhibition (Escherichia coli [5]): inactive; pKa (physchem [6]): 3.62
35 | 2.4 | 3.81 | 30 | 1.79 | Cl.Nc1ccc(C(=O)O)c(I)c1 | 
36 |  | 5.81 | 3.5 | 1 | Cl.Nc1ccc(C(=O)O)c(N)c1 | 
37 |  | 4.47 | 85 | 1.97 | CCCCCCOc1cc(C(=O)O)ccc1N | inhibition (Escherichia coli [5]): inactive; solubility [4]: soluble
38 | 2.4 | 5.25 | 125 | 1.69 | CCCCOc1cc(N)ccc1C(=O)O | solubility [4]: soluble
